Measured values as given in ChEMBL document CHEMBL3612061, “Imidazopyridines as a source of biological activity and their pharmacological potentials-Infrared and Raman spectroscopic evidence of their content in pharmaceuticals and plant materials” (Bioorg Med Chem, 2015).
Converted amounts (≈) assume the structure as drawn.

Columns and labels:
[1] = system: Vesicular stomatitis virus; assay: Antiviral activity against Vesicular stomatitis virus assessed as protection against virus-induced cytopathogenic effect by cell based assay; type: functional; conditions: read-out: ID50 (the source's name)
[2] = system: MDA-MB-231; assay: Cytotoxicity against human MDA-MB-231 cells; type: functional, cell-based
[3] = system: Human respirovirus 3; assay: Antiviral activity against Parainfluenza type 3 assessed as protection against virus-induced cytopathogenic effect by cell based assay; type: functional; conditions: read-out: ID50 (the source's name)
[4] = system: Yellow fever virus; assay: Antiviral activity against Yellow fever virus assessed as protection against virus-induced cytopathogenic effect by cell based assay; type: functional; conditions: read-out: ID50 (the source's name)
[5] = Cytotoxicity against human SKBR3 cells; type: functional, cell-based; conditions: SK-BR-3
[6] = system: MCF7; assay: Cytotoxicity against human MCF7 cells; type: functional, cell-based
[7] = system: Cerebral cortex; assay: Inhibition of GABA uptake in rat cerebral cortex; type: functional, tissue-based
[8] = Cytotoxicity against mouse leukemia cells; type: functional, cell-based; conditions: Leukemia cell
[9] = system: Classical swine fever virus; assay: Antiviral activity against Classical swine fever virus assessed as protection of viral infection by cell based assay; type: functional
[10] = target: T1, Type-2 angiotensin II receptor (Rattus norvegicus, UniProt P35351); assay: Inhibition of rat AT2 receptor
T1 sequence (P35351 whole entry): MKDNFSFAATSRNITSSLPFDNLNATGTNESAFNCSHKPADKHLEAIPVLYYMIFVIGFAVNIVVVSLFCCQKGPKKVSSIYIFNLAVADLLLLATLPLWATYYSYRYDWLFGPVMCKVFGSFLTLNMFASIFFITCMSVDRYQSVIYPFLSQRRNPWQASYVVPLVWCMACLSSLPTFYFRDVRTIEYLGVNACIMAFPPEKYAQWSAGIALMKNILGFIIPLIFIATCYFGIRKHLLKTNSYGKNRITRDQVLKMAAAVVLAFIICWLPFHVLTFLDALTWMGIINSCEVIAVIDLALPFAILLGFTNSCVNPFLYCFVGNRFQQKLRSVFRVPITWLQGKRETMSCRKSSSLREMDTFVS

| Compound | IC50 [2] [µM] | IC50 [5] [µM] | IC50 [6] [µM] | also measured |
| --- | --- | --- | --- | --- |
| Nc1nccc2c1ncn2C1C=C(CO)C(O)C1O (configuration not stated) [3-DEAZANEPLANOCIN A] | < 0.25 | < 0.25 | < 0.25 | IC50 [1]: 0.02 µg/mL (≈ 0.0763 µM); IC50 [3]: 0.02 µg/mL (≈ 0.0763 µM); IC50 [4]: 0.02 µg/mL (≈ 0.0763 µM) |
| Nc1ncnc2c1ncn2[C@@H]1C=C(CO)[C@@H](O)[C@H]1O [NEOPLANOCIN A] | < 25 | < 25 | < 25 | – |
| O=C(O)C1Cc2[nH]cnc2CN1 (configuration not stated) | – | – | – | IC50 [7]: 270 µM |
| OC[C@H]1O[C@@H](n2cnc3c(NO)cc(Cl)nc32)[C@H](O)[C@@H]1O | – | – | – | IC50 [8]: 0.9 µM |
| Brc1ccc(Cn2ccc3nc(-c4ccccc4)nc-3c2)cc1 | – | – | – | EC50 [9]: 0.8 µM |
| COc1ccc(CN2C=NC3CN(C(=O)C(c4ccccc4)c4ccccc4)C(C(=O)O)CC32)cc1C (configuration not stated) | – | – | – | IC50 [10]: 0.034 µM |
| Nc1nccc2c1ncn2[C@@H]1O[C@H](CO)[C@@H](O)[C@H]1O | < 0.1 | < 0.1 | < 0.1 | – |
| OC[C@H]1O[C@@H](n2cnc3/c(=N\O)[nH]cnc32)[C@H](O)[C@@H]1O | – | – | – | IC50 [8]: 0.9 µM |
